“Also recorded” adds a separate entry of the source.
Tests used:
[1] = tested on: MHCII molecules (HLA-DR, HLA-DP, HLA-DQ) of Raji B cells; type: binding, human
CD4+ T cells = type: cell-based, human
[2] = tested on: IFN-γ production by CD4+ T cell enriched donor PBMCs; type: cell-based, human

Sequence | Observed in Isotypes [1] | CD4+ T cell proliferation compared to basal growth rate (CD4+ T cells) | Donor 3 CFSE (CD4+ T cells) | Donor 4 CFSE (CD4+ T cells) | donors that gave positive / significant T cell response (CD4+ T cells) | Donor 1 IFN-γ [2] | Donor 2 IFN-γ [2] | Donor 3 IFN-γ [2] | Donor 4 IGN-γ [2] | IFN-γ production [2] | number of donors with significant levels of IFN-γ [2] | Donor 1 CFSE (CD4+ T cells) | Donor 2 CFSE (CD4+ T cells) | number of donors with positive T cell proliferative response (CD4+ T cells) | T cell response against previously published TT epitopes (CD4+ T cells)
CKALNPKEIE (TT-derived peptide) [TT1093-1102] | pulled down in the -DQ IP; also recorded: DR, DQ | not significant compared to basal growth rate | ** (key: * p < 0.05; ** p < 0.005; *** p < 0.0005) | *** (key: * p < 0.05; ** p < 0.005; *** p < 0.0005) | Donors 3 and 4 | * (key: * p < 0.05; ** p < 0.005; *** p < 0.0005) | * (key: * p < 0.05; ** p < 0.005; *** p < 0.0005) | ** (key: * p < 0.05; ** p < 0.005; *** p < 0.0005) | * (key: * p < 0.05; ** p < 0.005; *** p < 0.0005) | significant levels of IFN-γ response; also recorded: significant production of IFN-γ | at least three | – | – | – | –
DRILRVGYNAPGIPL (TT-derived peptide) [TT1222-1236] | – | – | – | * (key: * p < 0.05; ** p < 0.005; *** p < 0.0005) | – | – | *** (key: * p < 0.05; ** p < 0.005; *** p < 0.0005) | – | – | significant production of IFN-γ | – | * (key: * p < 0.05; ** p < 0.005; *** p < 0.0005) | *** (key: * p < 0.05; ** p < 0.005; *** p < 0.0005) | three | –
GLTKVLALKVD (CRM-derived peptide) [CRM87-97] | – | not significant compared to basal growth rate | ** (key: * p < 0.05; ** p < 0.005; *** p < 0.0005) | *** (key: * p < 0.05; ** p < 0.005; *** p < 0.0005) | Donors 3 and 4 | * (key: * p < 0.05; ** p < 0.005; *** p < 0.0005) | ** (key: * p < 0.05; ** p < 0.005; *** p < 0.0005) | *** (key: * p < 0.05; ** p < 0.005; *** p < 0.0005) | ** (key: * p < 0.05; ** p < 0.005; *** p < 0.0005) | significant levels of IFN-γ response; also recorded: significant production of IFN-γ | at least three | – | – | – | –
GYNAPGIPLYKK (TT-derived peptide) [TT1228-1239] | – | – | ** (key: * p < 0.05; ** p < 0.005; *** p < 0.0005) | *** (key: * p < 0.05; ** p < 0.005; *** p < 0.0005) | Donors 3 and 4 | – | – | ** (key: * p < 0.05; ** p < 0.005; *** p < 0.0005) | ** (key: * p < 0.05; ** p < 0.005; *** p < 0.0005) | – | – | – | – | – | –
GYVDSIQKGIQKPK (CRM-derived peptide) [CRM26-39] | – | increased proliferation | * (key: * p < 0.05; ** p < 0.005; *** p < 0.0005) | *** (key: * p < 0.05; ** p < 0.005; *** p < 0.0005) | – | ** (key: * p < 0.05; ** p < 0.005; *** p < 0.0005) | ** (key: * p < 0.05; ** p < 0.005; *** p < 0.0005) | * (key: * p < 0.05; ** p < 0.005; *** p < 0.0005) | *** (key: * p < 0.05; ** p < 0.005; *** p < 0.0005) | significant levels of IFN-γ response; also recorded: significant production of IFN-γ | at least three | * (key: * p < 0.05; ** p < 0.005; *** p < 0.0005) | – | three | –
KFIIKRYTPNNEIDSF (TT-derived peptide) [Peptide P32, reference compound] | – | – | ** (key: * p < 0.05; ** p < 0.005; *** p < 0.0005) | *** (key: * p < 0.05; ** p < 0.005; *** p < 0.0005) | – | – | ** (key: * p < 0.05; ** p < 0.005; *** p < 0.0005) | ** (key: * p < 0.05; ** p < 0.005; *** p < 0.0005) | * (key: * p < 0.05; ** p < 0.005; *** p < 0.0005) | – | – | – | *** (key: * p < 0.05; ** p < 0.005; *** p < 0.0005) | – | no significant response
KTTAALSILPGIGS (CRM-derived peptide) [CRM299-312] | pulled down in the HLA-DP specific immunoprecipitation; also recorded: pulled down in the -DQ IP; also recorded: identified through the -DR IP; also recorded: DR, DP, DQ | increased proliferation | ** (key: * p < 0.05; ** p < 0.005; *** p < 0.0005) | *** (key: * p < 0.05; ** p < 0.005; *** p < 0.0005) | – | * (key: * p < 0.05; ** p < 0.005; *** p < 0.0005) | ** (key: * p < 0.05; ** p < 0.005; *** p < 0.0005) | * (key: * p < 0.05; ** p < 0.005; *** p < 0.0005) | ** (key: * p < 0.05; ** p < 0.005; *** p < 0.0005) | significant levels of IFN-γ response; also recorded: significant production of IFN-γ | at least three | *** (key: * p < 0.05; ** p < 0.005; *** p < 0.0005) | *** (key: * p < 0.05; ** p < 0.005; *** p < 0.0005) | four | –
LFNRIKNNVAGEAL (TT-derived peptide) [TT94-107] | – | increased proliferation | *** (key: * p < 0.05; ** p < 0.005; *** p < 0.0005) | ** (key: * p < 0.05; ** p < 0.005; *** p < 0.0005) | – | – | ** (key: * p < 0.05; ** p < 0.005; *** p < 0.0005) | ** (key: * p < 0.05; ** p < 0.005; *** p < 0.0005) | * (key: * p < 0.05; ** p < 0.005; *** p < 0.0005) | significant production of IFN-γ | at least three | – | *** (key: * p < 0.05; ** p < 0.005; *** p < 0.0005) | three | –
LYNGLKFIIKR (TT-derived peptide) [TT1169-1179] | – | – | * (key: * p < 0.05; ** p < 0.005; *** p < 0.0005) | – | – | – | * (key: * p < 0.05; ** p < 0.005; *** p < 0.0005) | * (key: * p < 0.05; ** p < 0.005; *** p < 0.0005) | * (key: * p < 0.05; ** p < 0.005; *** p < 0.0005) | significant production of IFN-γ | at least three | * (key: * p < 0.05; ** p < 0.005; *** p < 0.0005) | *** (key: * p < 0.05; ** p < 0.005; *** p < 0.0005) | three | –
NFIGALET (TT-derived peptide) [TT660-667] | – | – | ** (key: * p < 0.05; ** p < 0.005; *** p < 0.0005) | *** (key: * p < 0.05; ** p < 0.005; *** p < 0.0005) | Donors 3 and 4 | * (key: * p < 0.05; ** p < 0.005; *** p < 0.0005) | – | * (key: * p < 0.05; ** p < 0.005; *** p < 0.0005) | * (key: * p < 0.05; ** p < 0.005; *** p < 0.0005) | significant levels of IFN-γ response | at least three | – | – | – | –
NILMQYIKANSK (TT-derived peptide) [TT826-837] | – | no significant response | – | – | – | – | – | * (key: * p < 0.05; ** p < 0.005; *** p < 0.0005) | – | – | – | – | – | one | –
QYIKANSKFIGITEL (TT-derived peptide) [Peptide P2, reference compound] | – | did not show increased proliferation; also recorded: did not show significant proliferation | * (key: * p < 0.05; ** p < 0.005; *** p < 0.0005) | *** (key: * p < 0.05; ** p < 0.005; *** p < 0.0005) | – | – | – | – | * (key: * p < 0.05; ** p < 0.005; *** p < 0.0005) | – | – | – | – | – | no significant response
TPLPIAGVLLPTIPGK (CRM-derived peptide) [CRM425-440] | pulled down in the -DQ IP; also recorded: DR, DQ | increased proliferation | ** (key: * p < 0.05; ** p < 0.005; *** p < 0.0005) | *** (key: * p < 0.05; ** p < 0.005; *** p < 0.0005) | Donors 2,3, and 4 | – | ** (key: * p < 0.05; ** p < 0.005; *** p < 0.0005) | ** (key: * p < 0.05; ** p < 0.005; *** p < 0.0005) | *** (key: * p < 0.05; ** p < 0.005; *** p < 0.0005) | significant production of IFN-γ | at least three | – | *** (key: * p < 0.05; ** p < 0.005; *** p < 0.0005) | three | –

Source: patent publication US20230211004A1, “TETANUS TOXOID AND CRM-BASED PEPTIDES AND METHODS OF USE” (UNIVERSITY OF GEORGIA RESEARCH FOUNDATION, INC., priority 2019, published 2023)
